Tests used:
Type in all cases: cell-based
5-HT2B receptor = target: T1, 5-HT2B receptor (Homo sapiens, UniProt P41595); test: 5-HT2B activation in a similar assay at a single 10 μM concentration
T1 construct: host or cells: CHO-K1
Protocol: Activation data are provided in a similar assay tested at a single 10 μM concentration.

5-HT2A receptor = target: T2, 5-HT2A receptor (Homo sapiens, UniProt P28223); test: FLIPR Ca2+ flux functional assay, agonist activity at 5-HT2A; details: stably transfected HEK293 cells
T2 construct: host or cells: HEK293
T2 sequence (P28223 whole entry): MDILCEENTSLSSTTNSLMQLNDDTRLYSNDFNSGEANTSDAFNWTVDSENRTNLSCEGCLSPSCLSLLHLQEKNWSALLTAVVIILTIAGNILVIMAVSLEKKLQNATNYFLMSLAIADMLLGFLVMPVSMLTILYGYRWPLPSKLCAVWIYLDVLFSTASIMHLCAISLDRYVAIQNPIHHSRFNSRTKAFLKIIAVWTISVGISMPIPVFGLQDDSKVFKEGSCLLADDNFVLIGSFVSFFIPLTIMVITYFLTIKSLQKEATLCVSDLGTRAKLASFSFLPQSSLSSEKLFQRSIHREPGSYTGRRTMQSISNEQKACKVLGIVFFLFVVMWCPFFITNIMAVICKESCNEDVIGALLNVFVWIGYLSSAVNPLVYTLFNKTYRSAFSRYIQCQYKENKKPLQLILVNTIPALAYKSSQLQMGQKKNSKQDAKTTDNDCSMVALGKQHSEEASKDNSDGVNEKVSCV
Protocol: (§1) Functional assays 5-HT2A, 5-HT2B and 5-HT2C Receptors
(§2) Activity at 5-HT2A, 5-HT2B and 5-HT2C receptors was determined using a FLIPR Ca2+ flux assay at WuXi AppTec Co. Ltd. (Hong Kong) Discovery Biology Unit according to their standard protocols. Briefly, stably transfected cells expressing the receptor of interest (HEK293 for 5-HT2A and 5-HT2C; CHO-K1 for 5-HT2B) were grown and plated in a 384 well plate and incubated at 37° C. and 5% CO2 overnight. A 250 mM stock solution of probenecid in FLIPR calcium assay buffer (10 mL) was freshly prepared and combined with a fluorescent dye (Fluo-4 Direct) to give a final assay concentration of 2.5 mM. Reference compounds were 4-fold serially diluted and the screening compounds were 3-fold serially diluted in 100% DMSO for 10 points using Agilent Bravo, and 750 nL was added to a 384 well compound plate using Echo along with 30 μL assay buffer. The fluorescent dye was then added to the assay plate along with assay buffer to a final volume of 40 μL. The cell plate was incubated for 50 min at 37° C. and 5% CO2 and placed into the FLIPR Tetra along with the compound plate. 10 μL of references and compounds were then transferred from the compound plate into the cell plate and the fluorescent signal was read.

5-HT2C receptor = target: T3, 5-HT2C receptor (Homo sapiens, UniProt P28335); test: FLIPR Ca2+ flux functional assay, agonist activity at 5-HT2C; details: stably transfected HEK293 cells
T3 construct: host or cells: HEK293
T3 sequence (P28335 33-458): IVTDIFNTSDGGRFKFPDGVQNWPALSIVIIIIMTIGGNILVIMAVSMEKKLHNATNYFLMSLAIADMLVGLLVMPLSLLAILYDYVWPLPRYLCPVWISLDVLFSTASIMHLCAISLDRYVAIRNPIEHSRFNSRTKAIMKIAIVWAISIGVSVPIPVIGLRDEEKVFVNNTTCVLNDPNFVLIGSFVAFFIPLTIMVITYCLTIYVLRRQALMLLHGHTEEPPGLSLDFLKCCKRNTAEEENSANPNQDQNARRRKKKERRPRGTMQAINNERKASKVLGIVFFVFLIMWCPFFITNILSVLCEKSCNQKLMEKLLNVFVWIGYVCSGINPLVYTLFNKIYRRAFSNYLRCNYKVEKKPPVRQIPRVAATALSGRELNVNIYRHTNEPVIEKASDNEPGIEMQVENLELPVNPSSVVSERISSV
Protocol: as §1, §2

T1 sequence (P41595 whole entry): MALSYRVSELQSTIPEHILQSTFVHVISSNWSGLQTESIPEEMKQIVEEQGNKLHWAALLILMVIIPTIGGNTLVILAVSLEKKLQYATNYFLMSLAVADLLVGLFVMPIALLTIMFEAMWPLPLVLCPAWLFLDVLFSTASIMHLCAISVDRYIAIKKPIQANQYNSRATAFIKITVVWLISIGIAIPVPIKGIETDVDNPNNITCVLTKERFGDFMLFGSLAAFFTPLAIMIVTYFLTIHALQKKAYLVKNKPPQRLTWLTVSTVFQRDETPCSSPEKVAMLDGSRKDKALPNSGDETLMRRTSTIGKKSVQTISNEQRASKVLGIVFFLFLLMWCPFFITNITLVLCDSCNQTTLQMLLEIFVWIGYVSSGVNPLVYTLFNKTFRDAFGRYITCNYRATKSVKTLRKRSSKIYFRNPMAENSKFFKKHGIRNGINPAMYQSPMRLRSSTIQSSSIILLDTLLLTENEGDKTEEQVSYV

Compound | 5-HT2B % Activation @ 10 μM (5-HT2B receptor) [%] | EC50 (5-HT2A receptor) [nM] | Emax (5-HT2A receptor) [%] | EC50 (5-HT2C receptor) [nM] | Emax (5-HT2C receptor) [%]
CN(CCc1c[nH]c2ncc(F)cc12)C1CC1 [Compound S1, N-(2-(5-fluoro-1H-pyrrolo[2,3-b]pyridin-3-yl)ethyl)-N-methylcyclopropanamine] | 2 | 33.7 | 82 | 1440 | 77
Fc1cnc2[nH]cc(CCNC3CC3)c2c1 [Compound S2, N-(2-(5-fluoro-1H-pyrrolo[2,3-b]pyridin-3-yl)ethyl)cyclopropanamine] | 74 | 10.8 | 92 | 187 | 92
Fc1cnc2[nH]cc(CCN(C3CC3)C3CC3)c2c1 [Compound S5, N-cyclopropyl-N-(2-(5-fluoro-1H-pyrrolo[2,3-b]pyridin-3-yl)ethyl)cyclopropanamine] |  | 1070 | 82 | > 10000 | 28
Fc1cnc2[nH]cc(CCN3CCCC3)c2c1 [Compound S6, 5-fluoro-3-(2-(pyrrolidin-1-yl)ethyl)-1H-pyrrolo[2,3-b]pyridine] | 16 | 37.9 | 81 | 1860 | 81
Fc1cnc2[nH]cc(CCN3CCCCC3)c2c1 [Compound S7, 5-fluoro-3-(2-(piperidin-1-yl)ethyl)-1H-pyrrolo[2,3-b]pyridine] | 0 | 529 | 70 | > 10000 | 2
Fc1cnc2[nH]cc(CCN3CCC34CCC4)c2c1 [Compound S8, 3-(2-(1-azaspiro[3.3]heptan-1-yl)ethyl)-5-fluoro-1H-pyrrolo[2,3-b]pyridine] |  | 354 | 56 | > 10000 | 0
Fc1cnc2[nH]cc(CCN3CCC3)c2c1 [Compound S9, 3-(2-(azetidin-1-yl)ethyl)-5-fluoro-1H-pyrrolo[2,3-b]pyridine] |  | 21 | 83 | 1480 | 72
Fc1cnc2[nH]cc(CCNC3CCC3)c2c1 [Compound S11, N-(2-(5-fluoro-1H-pyrrolo[2,3-b]pyridin-3-yl)ethyl)cyclobutanamine] |  | 136 | 80 | > 10000 | 25
CN(CCc1c[nH]c2ncc(F)cc12)C1CCC1 [Compound S12, N-(2-(5-fluoro-1H-pyrrolo[2,3-b]pyridin-3-yl)ethyl)-N-methylcyclobutanamine] |  | 79 | 84 | 3370 | 50
Fc1cnc2[nH]cc(CCN3CCOCC3)c2c1 [Compound S15, 4-(2-(5-fluoro-1H-pyrrolo[2,3-b]pyridin-3-yl)ethyl)morpholine] |  | 1940 | 72 | > 10000 | 0
CC1CCN1CCc1c[nH]c2ncc(F)cc12 (stereo not shown) [Compound S16, 3-(2-(2-methylazetidin-1-yl)ethyl)-5-fluoro-1H-pyrrolo[2,3-b]pyridine] |  | 32.5 | 81 | 1100 | 60
Fc1cnc2[nH]cc(CCNCC3CC3)c2c1 [Compound S17, N-(cyclopropylmethyl)-2-(5-fluoro-1H-pyrrolo[2,3-b]pyridin-3-yl)ethan-1-amine] | 7 | 134 | 84 | 4120 | 35
Fc1cnc2[nH]cc(CCN3CCC4CC43)c2c1 (stereo not shown) [Compound S25, 3-(2-(2-azabicyclo[3.1.0]hexan-2-yl)ethyl)-5-fluoro-1H-pyrrolo[2,3-b]pyridine] | 41 | 8.98 | 87 | 76 | 84
Fc1cnc2[nH]cc(CCNCc3ccccc3F)c2c1 [Compound S30, 2-(5-fluoro-1H-pyrrolo[2,3-b]pyridin-3-yl)-N-(2-fluorobenzyl)ethan-1-amine] |  | 26.9 | 82 | 512 | 83
Fc1cccc(CNCCc2c[nH]c3ncc(F)cc23)c1 [Compound S31, 2-(5-fluoro-1H-pyrrolo[2,3-b]pyridin-3-yl)-N-(3-fluorobenzyl)ethan-1-amine] |  | 15.5 | 87 | 515 | 76
COc1ccccc1CNCCc1c[nH]c2ncc(F)cc12 [Compound S32, 2-(5-fluoro-1H-pyrrolo[2,3-b]pyridin-3-yl)-N-(2-methoxybenzyl)ethan-1-amine] |  | 3.31 | 94 | 206 | 89
COc1cccc(CNCCc2c[nH]c3ncc(F)cc23)c1 [Compound S33, 2-(5-fluoro-1H-pyrrolo[2,3-b]pyridin-3-yl)-N-(3-methoxybenzyl)ethan-1-amine] |  | 8.27 | 82 | 244 | 87
Fc1cnc2[nH]cc(CCNCc3ccccc3)c2c1 [Compound S34, N-benzyl-2-(5-fluoro-1H-pyrrolo[2,3-b]pyridin-3-yl)ethan-1-amine] |  | 18 | 90 | 319 | 84
CN(CCc1c[nH]c2ncc(OC(F)(F)F)cc12)C1CC1 [Compound S41, N-methyl-N-(2-(5-(trifluoromethoxy)-1H-pyrrolo[2,3-b]pyridin-3-yl)ethyl)cyclopropanamine] | 0 | 822 | 41 | > 10000 | 0
CN(CCc1c[nH]c2ncc(Cl)cc12)C1CC1 [Compound S42, N-(2-(5-chloro-1H-pyrrolo[2,3-b]pyridin-3-yl)ethyl)-N-methylcyclopropanamine] | 15 | 143 | 58 | 1100 | 75
CN(CCc1c[nH]c2ncc(F)cc12)CC1CC1 [Compound S43, N-(cyclopropylmethyl)-2-(5-fluoro-1H-pyrrolo[2,3-b]pyridin-3-yl)-N-methylethan-1-amine] |  | 155 | 71 | 2740 | 55
COc1cnc2[nH]cc(CCN(C)C3CC3)c2c1 [Compound S44, N-(2-(5-methoxy-1H-pyrrolo[2,3-b]pyridin-3-yl)ethyl)-N-methylcyclopropanamine] | 1 | 9.49 | 82 | 2830 | 45
COc1cnc2[nH]cc(CCN3CCC3)c2c1 [Compound S45, 3-(2-(azetidin-1-yl)ethyl)-5-methoxy-1H-pyrrolo[2,3-b]pyridine] | 0 | 24 | 86 | > 10000 | 11
COc1cnc2[nH]cc(CCN3CCCC3)c2c1 [Compound S46, 5-methoxy-3-(2-(pyrrolidin-1-yl)ethyl)-1H-pyrrolo[2,3-b]pyridine] | 3 | 47 | 91 | 4170 | 43
COc1cnc2[nH]cc(CCN3CCCCC3)c2c1 [Compound S47, 5-methoxy-3-(2-(piperidin-1-yl)ethyl)-1H-pyrrolo[2,3-b]pyridine] | 0 | 673 | 65 | > 10000 | 8
C[C@H]1CCN1CCc1c[nH]c2ncc(F)cc12 [Compound S48, (S)-5-fluoro-3-(2-(2-methylazetidin-1-yl)ethyl)-1H-pyrrolo[2,3-b]pyridine] | 2 | 115 | 82 | 3960 | 44
C[C@@H]1CCN1CCc1c[nH]c2ncc(F)cc12 [Compound S49, (R)-5-fluoro-3-(2-(2-methylazetidin-1-yl)ethyl)-1H-pyrrolo[2,3-b]pyridine] | 0 | 65.7 | 78 | > 10000 | 28
C[C@@H]1CCCN1CCc1c[nH]c2ncc(F)cc12 [Compound S50, (R)-5-fluoro-3-(2-(2-methylpyrrolidin-1-yl)ethyl)-1H-pyrrolo[2,3-b]pyridine] | 2 | 66.5 | 90 | 3980 | 44
